Where a SMILES comes first, the peptide text is derived from it. [ ]: non-standard residue; d: D form. The star is where a group is joined. Doxorubicin(3'-N) = COc1cccc2c1C(=O)c1c(O)c3c(c(O)c1C2=O)C[C@@](O)(C(=O)CO)C[C@@H]3O[C@H]1C[C@H](N*)[C@H](O)[C@H](C)O1; Thyronine(3,5,3'-I3) = N[C@@H](Cc1cc(I)c(Oc2ccc(O)c(I)c2)c(I)c1)C(=O)O; Hexanoyl(6-maleimido) = O=C1C=CC(=O)N1CCCCCC(=O)*; Propanoyl(3-maleimido) = O=C1C=CC(=O)N1CCC(=O)*; PEG6 = NCCOCCOCCOCCOCCOCCOCCC(=O)O; PEG4 = NCCOCCOCCOCCOCCC(=O)O; PEG3 = NCCOCCOCCOCCC(=O)O; PEG2 = NCCOCCOCCC(=O)O
What was measured:
[1] = test system: Human hepatoma HepG2 cells; assay: Human liver cancer HepG2 tumors in nude mice; type: in vivo; conditions: Mus musculus, HepG2, iv, 672 h, read-out: Tumor inhibition rate (%) Day 28
Method: • 1. Animals: nude mice aged 6-8 weeks, all female. • 2. Preparation of tumor models
Human hepatoma HepG2 cells were purchased from ATCC and identified according to the instructions provided. […] Randomization was performed when the tumor size reached 100 mm^3.
Treatment was then initiated, and the day of initiation of treatment was counted as Day 1. • 3) Treatment process
According to the clinical application of the corresponding compound, the drug was administered intravenously (IV). The compound and the control drug were administered at a dose of 54 umol/kg, and DOX could only be administered at a dose of 18 umol/kg due to toxicity limitations.

CT26 tumor = CT26 tumor immune model, tumor suppression and CD8+ T cell analysis; type: in vivo, BALB/c mice
Method: • 1) CT26 cells were purchased from ATCC. […] The corresponding 5×10^6 cells were injected subcutaneously into the back of […] mice. After the size of tumors reached at least 100 mm^3, the mice were randomized into groups. Treatment was then initiated, with the day of treatment initiation being Day 1. • 3) The course of treatment. The drug was administered at an equimolar dose of 36 umol/kg. The control group was given normal saline. The drug was administered once a week for three week. • 4) Tumor CD8+ T cell analysis. Tumor tissue was homogenized, individual cells in the tumor were filtered, dissociated and washed twice with buffer, and then incubated with leukocyte common antigen CD45-PE and CD8-FITC-labeled antibodies for 1 hour at room temperature. The cells were washed twice with phosphate buffered saline containing 1% fetal bovine serum, and then the proportion of T lymphocyte antigen (CD8)-positive cells in leukocyte common antigen (CD45)-positive cells was analyzed by flow cytometry. An increase in the ratio indicates an increase in T lymphocytes and therefore an improvement in the immunity of the animal to the tumor. • 5) The grouping and test results are shown in Table 7.

[2] = Water solubility test (observation and HPLC); type: physicochemical; conditions: thermodynamic from solid
Method: The compounds prepared in accordance with the examples of the disclosure and the reference compounds C1, C2, C3 and C4 were lyophilized (−70° C.).

NAFLD model mice = assay: Nonalcoholic fatty liver disease (NAFLD) model mice, serum HDL-C and LDL-C; type: in vivo; conditions: NAFLD (high-fat diet) C57 mice, IV twice a week for 8 weeks, 12 hour after last administration, normal group 100%; for Change from normal group HDL-C: serum HDL-C; for Change from normal group LDL-C: serum LDL-C
Method: • Methods: C57 mice were randomly divided into normal group (standard diet), model group (high-fat diet), simvastatin group (positive control, 3 mg/kg) and drug group (50 mg/kg), with 6 mice in each group. The normal group was fed with standard diet, and the other groups were fed with high-fat diet to induce NAFLD model. At the same time of modeling, the mice in each group were given the corresponding dose of 48 umol/kg medicine IV twice a week for 8 weeks in total. 12 hour after the last administration, the serum biochemical indicators were determined by automatic biochemical analyzer: High density lipoprotein cholesterol (HDL-C), and low density lipoprotein (LDL-C).

[3] = drug 36 umol/kg once a week for three weeks, PD-1 antibody 5 mg/kg

SMILES	inhibition in vivo at 54 µmol/kg [1] [%]	CD8:CD45 (%) (CT26 tumor; CD8-positive among CD45-positive cells in tumor, flow cytometry)	Tumor inhibition rate (%) Day 28 (CT26 tumor; [3]) [%]	Tumor volume (mm^3) Day 28 (CT26 tumor; [3]) [mm^3]	solubility [2] [µg/mL]	Change from normal group HDL-C (NAFLD model mice) [%]	Change from normal group LDL-C (NAFLD model mice) [%]
COc1cccc2c1C(=O)c1c(O)c3c(c(O)c1C2=O)C[C@@](O)(C(=O)CO)C[C@@H]3O[C@H]1C[C@H](NC(=O)[C@H](CC(C)C)NC(=O)[C@H](CC(N)=O)NC(=O)[C@H](C)NC(=O)[C@H](C)NC(=O)[C@H](CC(=O)O)NC(=O)CCCCCN2C(=O)C=CC2=O)[C@H](O)[C@H](C)O1 [QHL-120-DOX] ({Hexanoyl(6-maleimido)}-DAANL-{Doxorubicin(3'-N)})	92.8	–	–	–	–	–	–
CCOCc1nc2c(NC(=O)OCc3ccc(NC(=O)[C@H](CC(N)=O)NC(=O)[C@H](C)NC(=O)[C@H](C)NC(=O)CCCCCN4C(=O)C=CC4=O)cc3)nc3ccccc3c2n1CC(C)(C)O [QHL-140-resiquimod]	–	15.4	81.9	342.8 ± 112.9	–	–	–
C[C@H](NC(=O)CCCCCN1C(=O)C=CC1=O)C(=O)N[C@@H](C)C(=O)N[C@@H](CC(N)=O)C(=O)N[C@@H](Cc1cc(I)c(Oc2ccc(O)c(I)c2)c(I)c1)C(=O)O [QHL-150-T3] ({Hexanoyl(6-maleimido)}-AAN[Thyronine(3,5,3'-I3)]-OH)	–	–	–	–	> 10000	86.8	119.32
C[C@H](NC(=O)CCOCCOCCNC(=O)CCN1C(=O)C=CC1=O)C(=O)N[C@@H](C)C(=O)N[C@@H](CC(N)=O)C(=O)N[C@@H](Cc1cc(I)c(Oc2ccc(O)c(I)c2)c(I)c1)C(=O)O [QHL-157-T3] ({Propanoyl(3-maleimido)-PEG2}-AAN[Thyronine(3,5,3'-I3)]-OH)	–	–	–	–	> 10000	94.8	110.7
C[C@H](NC(=O)CCOCCOCCOCCNC(=O)CCN1C(=O)C=CC1=O)C(=O)N[C@@H](C)C(=O)N[C@H](CC(N)=O)C(=O)N[C@@H](Cc1cc(I)c(Oc2ccc(O)c(I)c2)c(I)c1)C(=O)O [QHL-158-T3] ({Propanoyl(3-maleimido)-PEG3}-AA[dN][Thyronine(3,5,3'-I3)]-OH)	–	–	–	–	> 10000	91.9	103.6
C[C@H](NC(=O)CCOCCOCCOCCOCCNC(=O)CCN1C(=O)C=CC1=O)C(=O)N[C@@H](C)C(=O)N[C@@H](CC(N)=O)C(=O)N[C@@H](Cc1cc(I)c(Oc2ccc(O)c(I)c2)c(I)c1)C(=O)O [QHL-159-T3] ({Propanoyl(3-maleimido)-PEG4}-AAN[Thyronine(3,5,3'-I3)]-OH)	–	–	–	–	> 10000	97.7	105.3
C[C@H](NC(=O)CCOCCOCCOCCOCCOCCOCCNC(=O)CCN1C(=O)C=CC1=O)C(=O)N[C@@H](C)C(=O)N[C@H](CC(N)=O)C(=O)N[C@@H](Cc1cc(I)c(Oc2ccc(O)c(I)c2)c(I)c1)C(=O)O [QHL-160-T3] ({Propanoyl(3-maleimido)-PEG6}-AA[dN][Thyronine(3,5,3'-I3)]-OH)	–	–	–	–	> 10000	89.4	117.5
CCC(C)(C)C(=O)O[C@H]1C[C@@H](C)C=C2C=C[C@H](C)[C@H](CC[C@@H]3C[C@@H](O)CC(=O)O3)[C@H]21 [simvastatin, reference compound]	–	–	–	–	–	86.3	118.3
